Data from PMC5341405, “Lapachol, a compound targeting pyrimidine metabolism, ameliorates experimental autoimmune arthritis” (Arthritis Research & Therapy, 2017).
Where two headings read alike, the source gives them in different places.

Legend:
[1] = Pharmacokinetics after i.v. administration; format: in vivo, Wistar rats; settings: for Vd: read-out: Vdss
Description: (§1) For administration to Wistar rats, LAP was dissolved in DMSO:Tween 80:glucose 5% in a proportion of 15:5:80 (v/v/v), resulting in a solution of 1 mg/ml (for intravenous (i.v.) administration) and another of 5 mg/ml (for oral administration). LAP was administered to rats as an i.v. bolus dose at 2 mg/kg (n = 7) and at two oral doses of 10 (n = 8) and 25 mg/kg (n = 6). LAP salt was administered as i.v. (2 mg/kg, n = 6) and oral doses (30 mg/kg equivalent to 27.5 mg/kg of LAP, n = 8). The i.v. doses were injected into the lateral tail vein, and oral doses were given by gavage. The doses were chosen based on previous toxicological and pharmacodynamic studies. At predetermined time points (30 min before dosing and at 0.08, 0.25, 0.5, 1, 2, 4, 6, 8, 12, and 24 h) after LAP i.v. administration, blood samples (200–250 μl) were withdrawn into heparinized tubes via puncture of the lateral tail vein, opposite to the vein used for drug dosing. The same procedure was carried out after oral administration of LAP, with blood sampling at 0.25, 0.5, 1, 1.5, 2, 3, 6, 12, 24, and 30 h. After LAP sodium salt i.v. and oral dosing, blood samples were harvested up to 10 and 12 h, respectively. Plasma was obtained by centrifugation of blood samples (6800 × g, at 4 °C for 10 min) and stored at –80 °C until analysis by UPLC-MS/MS.
(§2) LAP and LAP sodium salt pharmacokinetic parameters after i.v. and oral administration were determined from individual plasma profiles by a noncompartmental approach (NCA). The peak plasma concentration (Cmax) and the time of maximum concentration (Tmax) were obtained by visual inspection of the data from the plasma concentration–time curve after oral dosing. Pharmacokinetic parameters such an elimination rate constant (λ), area under the curve (AUC0–∞), clearance (CLtot), half-life (t1/2), volume of distribution (Vdss), mean residence time (MRT), and bioavailability (Fabs) were determined using classical equations. The compartmental analyses were performed using SCIENTIST v.2.0.1 software (MicroMath®, USA). One- and two-compartment models with or without weighting schemes were evaluated. The best model to fit the data was chosen based on the random distribution of residuals, the correlation coefficient, and the model selection criterion (MSC) given by the software.
(§3) The individual plasma profiles of LAP and LAP sodium salt after i.v. administration were best described by a two-compartmental open model. Plasma profiles after oral administration with two different doses of LAP and one dose of LAP sodium salt were best described by the one-compartmental model.
(§4) LAP concentration in plasma samples was determined by a validated (FDA, US Food and Drug Administration, 2001) UPLC-MS/MS method. Analyses were run on an Acquity UPLC BEH (Waters Acquity™) C18 column (2.1 × 50 mm, 1.7 μm particle size), with a flow of 300 μl/min at 35 °C. A gradient constituted of water (A) and acetonitrile (B) acidified with 0.1% acetic acid was used as follows: 0 min (90% A), 1 min (75% A), 7 min (50% A), 8.5 min (0% A) and 9.5 min (100% A). For the triple quadrupole, MS parameters were set as follows: capillary voltage (2.20 kV); extractor (3.0 V) source temperature (150 °C), desolvation temperature (300 °C), cone gas flow (50 l/h), and desolvation gas flow (700 l/h). For quantification, a multiple reaction monitoring method (MRM) was applied. For LAP, the transition of m/z 243 > 187 using cone energy of 24 V and collision energy of 19 V was determined as most appropriate for quantification (Calibration curves between 1 and 20,000 ng/ml of LAP, R > 0.99, low quantification limit of 1 ng/ml, and detection limit of 0.1 ng/ml).
(§5) A total of 200 μl cold acetonitrile containing internal standard (2-methyl-amino-lapachol) at 5 μg/ml and 0.05% trifluoroacetic acid was added to 100 μl of plasma and vortexed for 20 s. Precipitated protein was removed by centrifugation (6800 × g at 4 °C for 10 min). […]

[2] = Pharmacokinetics after oral administration; format: in vivo, Wistar rats; settings: for AUC(0-inf) / k el / Cmax / MRT / Tmax / half-life: Wistar, rat, plasma; for AUC(0-inf): po; for k el: read-out: Ke (converted)
Description: as §1, §2, §3, §4, §5

[3] = Wistar, rat, plasma, iv, 2 mg/kg, 2 mg/kg i.v., 2-Comp
[4] = Wistar, rat, plasma, iv, 2 mg/kg, 2 mg/kg i.v., NCA

Molecule CC(C)=CCC1=C(O)C(=O)c2ccccc2C1=O [LAP, 2-hydroxy-3-(3methyl-2-butenyl)-1,4-naphthoquinone] has a CLtot ([1]; 2 mg/kg i.v., 2-Comp) of 0.667 ± 0.167 mL/min/kg, a Vc ([1]; 2 mg/kg i.v., 2-Comp) of 0.11 ± 0.03 L/kg and an a ([1]; 2 mg/kg i.v., 2-Comp) of 10.0 ± 4.1 µg/mL. The b ([1]; 2 mg/kg i.v., 2-Comp) was 8.8 ± 3.1 µg/mL, the t1/2ß ([1]; 2 mg/kg i.v., 2-Comp) was 3.7 ± 0.5 h and the t1/2α ([1]; 2 mg/kg i.v., 2-Comp) was 0.6 ± 0.4 h. It also gave a ß ([1]; 2 mg/kg i.v., 2-Comp) of 0.19 ± 0.03 h⁻¹, a α ([1]; 2 mg/kg i.v., 2-Comp) of 1.76 ± 1.52 h⁻¹ and a CLtot ([1]; 2 mg/kg i.v., NCA) of 0.667 ± 0.167 mL/min/kg. The λ ([1]; 2 mg/kg i.v., NCA) was 0.18 ± 0.04 h⁻¹, the AUC(0-inf) [1, 3] was 56.4 ± 21.6 µg·h/mL and the Vd [1, 3] was 0.17 ± 0.03 L/kg. For the same molecule, the AUC(0-inf) [1, 4] was 56.1 ± 20.1 µg·h/mL, the MRT [1, 4] was 5.3 ± 1.2 h and the Vd [1, 4] was 0.19 ± 0.03 L/kg. For the same molecule, the half-life ([1]; Wistar, rat, plasma, iv, 2 mg/kg, 2 mg/kg i.v., NCA, read-out: t1/2 (converted)) was 4.1 ± 1.1 h, the linearity of pharmacokinetics ([1]; dose range investigated 2–25 mg/kg (i.v. and oral)) was “Linear pharmacokinetics” and the total clearance ([1]; intravenous administration, rats) was 0.67 ± 0.17 mL/min/kg. The Ka ([2]; 10 mg/kg oral LAP, 1-Comp) was 2.61 ± 0.85 h⁻¹, the t1/2ß ([2]; 10 mg/kg oral LAP, 1-Comp) was 4.2 ± 0.3 h and the Fabs ([2]; 10 mg/kg oral LAP, NCA) was 77%. For the same molecule, the l ([2]; 10 mg/kg oral LAP, NCA) was 0.16 ± 0.01 h⁻¹, the Ka ([2]; 25 mg/kg oral LAP, 1-Comp) was 2.93 ± 0.79 h⁻¹ and the Vdss ([2]; 25 mg/kg oral LAP, 1-Comp) was 0.24 ± 0.04 L/kg. It also gave a t1/2ß ([2]; 25 mg/kg oral LAP, 1-Comp) of 4.4 ± 0.6 h, a Fabs ([2]; 25 mg/kg oral LAP, NCA) of 65% and a l ([2]; 25 mg/kg oral LAP, NCA) of 0.19 ± 0.03 h⁻¹. The AUC(0-inf) ([2]; 10 mg/kg, 10 mg/kg oral LAP, 1-Comp) was 237 ± 20.2 µg·h/mL, the AUC(0-inf) ([2]; 10 mg/kg, 10 mg/kg oral LAP, NCA) was 217 ± 22 µg·h/mL and the AUC(0-inf) ([2]; 25 mg/kg, 25 mg/kg oral LAP, 1-Comp) was 434 ± 79.7 µg·h/mL. The AUC(0-inf) ([2]; 25 mg/kg, 25 mg/kg oral LAP, NCA) was 449 ± 78.1 µg·h/mL, the k el ([2]; 10 mg/kg oral LAP, 1-Comp) was 4.72e-05 s⁻¹ and the Cmax ([2]; 10 mg/kg oral LAP, NCA) was 31600 ± 3800 ng/mL. It also gave an MRT ([2]; 10 mg/kg oral LAP, NCA) of 7.2 ± 0.6 h, a Tmax ([2]; 10 mg/kg oral LAP, NCA) of 1.2 ± 0.3 h and a half-life ([2]; 10 mg/kg oral LAP, NCA) of 3.2 ± 0.2 h. It also gave a k el ([2]; 25 mg/kg oral LAP, 1-Comp) of 4.44e-05 s⁻¹, a Cmax ([2]; 25 mg/kg oral LAP, NCA) of 65600 ± 10600 ng/mL and an MRT ([2]; 25 mg/kg oral LAP, NCA) of 7.2 ± 0.7 h. For the same molecule, the Tmax ([2]; 25 mg/kg oral LAP, NCA) was 1.3 ± 0.4 h and the half-life ([2]; 25 mg/kg oral LAP, NCA) was 3.6 ± 0.5 h.
